Like-named read-outs stand apart in the source and are kept apart here. e = 2'-O-(2-methoxyethyl) (MOE); d = 2'-deoxy (DNA)
Tests used:
[1] = mouse, in vivo, sc, 50 mg/kg
[2] = mouse, in vivo, sc, 50 mg/kg; remark: listed apart in the source
[3] = mouse, in vivo, sc, 50 mg/kg; remark: listed apart in the source
[4] = rat, in vivo, sc, 50 mg/kg
[5] = rat, in vivo, sc, 50 mg/kg; remark: listed apart in the source
[6] = rat, in vivo, sc, 50 mg/kg; remark: listed apart in the source

| Substance | ALT [1] [IU/L] | AST [1] [IU/L] | Albumin [1] | Bilirubin [1] [mg/dL] | BUN [2] [mg/dL] | Lymphocyte [3] | Neutrophil [3] | Platelets [3] | ALT [4] [IU/L] | AST [4] [IU/L] | Albumin [4] | Bilirubin [4] [mg/dL] | BUN [5] [mg/dL] | Creatinine [5] [mg/dL] | Urine protein/creatinine ratio [5] | HCT [6] [%] | Lymphocyte [6] [%] | Neutrophil [6] [%] | Platelets [6] [nL⁻¹] | RBC [6] [pL⁻¹] | other results |
| --- | --- | --- | --- | --- | --- | --- | --- | --- | --- | --- | --- | --- | --- | --- | --- | --- | --- | --- | --- | --- | --- |
| ISIS 445505: 5-8-5 or 6-8-6 MOE microwalk gapmer (Table 44) (antisense CGGCATTGGTGCACAGTTTC; sugars from the 5' end e6 d8 e6, backbone and methylation of C not given here) | 116 | 153 | 3.2 | 0.18 | 29 | 3447 | 818 | 725 | 356 | 243 | 3.6 | 0.15 | 24 | 0.4 | 3.8 | 50 | 87 | 10 | 1089 | 9.1 | HCT [3]: 49%; RBC [3]: 9.6; WBC [3]: 5; hemoglobin [3]: 14.6 g/dL; WBC [6]: 21 nL⁻¹; hemoglobin [6]: 15.0 g/dL; monocytes [6]: 2.5% |
| ISIS 445509: 5-8-5 or 6-8-6 MOE microwalk gapmer (Table 44) (antisense CGGACGGCATTGGTGCACAG; sugars from the 5' end e6 d8 e6, backbone and methylation of C not given here) | 80 | 117 | 3.1 | 0.17 | 29 | 3758 | 1104 | 1085 | 676 | 291 | 3.5 | 0.14 | 27 | 0.5 | 4.0 | 47 | 84 | 11 | 1115 | 8.4 | HCT [3]: 51%; RBC [3]: 10.2; WBC [3]: 5; hemoglobin [3]: 15.3 g/dL; WBC [6]: 17 nL⁻¹; hemoglobin [6]: 14.1 g/dL; monocytes [6]: 3.8% |
| ISIS 445513: 5-8-5 or 6-8-6 MOE microwalk gapmer (Table 44) (antisense GCAGCGGACGGCATTGGTGC; sugars from the 5' end e6 d8 e6, backbone and methylation of C not given here) | 37 | 84 | 3.1 | 0.22 | 27 | 5523 | 959 | 942 | 214 | 91 | 3.5 | 0.15 | 24 | 0.4 | 4.6 | 44 | 82 | 14 | 1051 | 7.8 | WBC [6]: 17 nL⁻¹; hemoglobin [6]: 13.0 g/dL; monocytes [6]: 3.5% |
| ISIS 445530: 5-8-5 or 6-8-6 MOE microwalk gapmer (Table 44) (antisense GCATTGGTGCACAGTTTC; sugars from the 5' end e5 d8 e5, backbone and methylation of C not given here) | 104 | 136 | 3.2 | 0.18 | 26 | 5488 | 930 | 849 | 116 | 56 | 3.7 | 0.11 | 22 | 0.4 | 4.2 | 50 | 87 | 11 | 1249 | 8.9 | HCT [3]: 50%; RBC [3]: 10.0; WBC [3]: 7; hemoglobin [3]: 15.1 g/dL; WBC [6]: 12 nL⁻¹; hemoglobin [6]: 14.7 g/dL; monocytes [6]: 2.0% |
